Patent US20260200897A1, “4-((5-(3-(4-(PYRIDIN-2-YL)CYCLOPENTYL)-1H-PYRAZOL-3-YL)AMINO)-BENZENESULFONAMIDE DERIVATIVES AND SIMILAR COMPOUNDS AS CDK INHIBITORS FOR THE TREATMENT OF CANCER” (BeOne Medicines I GmbH, priority 2023, published 2026)

Columns and labels:
CDK1/Cyclin B1 = CDK1/Cyclin B1 (Homo sapiens, UniProt P06493); experiment: CDK1/Cyclin B1 TR-FRET biochemical assay, 0.015 mM ATP; details: 0.15 μM Rb (Ser780)-biotin substrate, 120 min reaction, Table 1
Protocol: (§1) Compounds disclosed herein were tested for inhibition of CDK2/Cyclin E1 or CDK1/Cyclin B1 kinase in an assay based on the time-resolved fluorescence-resonance energy transfer (TR-FRET) methodology. The assay was carried out in 384-well low volume black plates in a reaction mixture containing CDK2/Cyclin E1 or CDK1/Cyclin B1, 0.060 mM ATP for CDK2/Cyclin E1 or 0.015 mM ATP for CDK1/Cyclin B1, 0.15 μM Rb (Ser780)-biotin substrate and 0-10 μM compound in buffer containing 50 mM HEPES pH7.0, 0.02% NaN3, 0.01% BSA, 0.1 mM Orthovanadate, 50 mM MgCl2, 1 mM DTT and 0.005% Tween-20. The kinase was incubated with compound for 60 minutes at room temperature and the reaction was initiated by the addition of ATP and Rb (Ser780)-biotin substrate. After reaction at room temperature for 120 minutes, an equal volume of stop/detection solution was added according to the manufacture's instruction (Cisbio Bioassays). The stop/detection solution contained Streptavidin-XL665 and Anti-pRb (Ser780) mAb-Eu Cryptate in Detection buffer (Cisbio Bioassays). Plates were incubated at room temperature for 60 minutes, and the TR-FRET signals (ex337 nm, em665 nm/620 nm) were recorded on a PHERAstar FSX plate reader (BMG Labtech). The inhibition percentage of CDK2/Cyclin E1 or CDK1/Cyclin B1 kinase activity in presence of increasing concentrations of compounds was calculated based on the ratio of fluorescence at 665 nm to that at 620 nm. The IC50 for each compound was derived from fitting the data to the four-parameter logistic equation by Dotmatics.

CDK2/Cyclin E1 = CDK2/Cyclin E1 (Homo sapiens, UniProt P24941); experiment: CDK2/Cyclin E1 TR-FRET biochemical assay, 0.060 mM ATP; details: 0.15 μM Rb (Ser780)-biotin substrate, 120 min reaction, Table 1
Protocol: as §1

Sequence of CDK1/Cyclin B1 (P06493 whole entry): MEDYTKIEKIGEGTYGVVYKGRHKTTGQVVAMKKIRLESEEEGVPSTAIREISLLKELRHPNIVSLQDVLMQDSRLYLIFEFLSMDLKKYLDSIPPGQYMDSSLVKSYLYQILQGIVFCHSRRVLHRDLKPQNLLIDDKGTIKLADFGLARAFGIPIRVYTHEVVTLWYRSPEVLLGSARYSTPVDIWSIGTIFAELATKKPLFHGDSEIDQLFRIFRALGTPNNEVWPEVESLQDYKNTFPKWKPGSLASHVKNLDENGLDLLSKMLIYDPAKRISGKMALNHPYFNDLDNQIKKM
Sequence of CDK1/Cyclin B1 (P14635 whole entry partner): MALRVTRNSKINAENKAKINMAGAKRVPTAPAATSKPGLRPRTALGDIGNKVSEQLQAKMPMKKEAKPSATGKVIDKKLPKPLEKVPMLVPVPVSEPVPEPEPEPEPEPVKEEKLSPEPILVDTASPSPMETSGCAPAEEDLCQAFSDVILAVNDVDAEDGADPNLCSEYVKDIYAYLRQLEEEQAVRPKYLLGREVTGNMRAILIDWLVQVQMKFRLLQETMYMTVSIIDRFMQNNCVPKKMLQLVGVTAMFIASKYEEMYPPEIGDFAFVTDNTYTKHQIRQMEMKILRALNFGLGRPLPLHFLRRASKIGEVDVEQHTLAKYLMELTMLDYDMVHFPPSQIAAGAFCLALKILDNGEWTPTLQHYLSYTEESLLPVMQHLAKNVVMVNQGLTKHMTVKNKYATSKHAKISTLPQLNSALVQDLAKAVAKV

IC50 (CDK1/Cyclin B1)	IC50 (CDK2/Cyclin E1)	Compound
7120 nM	764 nM	CC(C)(C)c1ncccc1O[C@@H]1CC[C@H](c2cc(Nc3ccc4c(c3F)CNS4(=O)=O)n[nH]2)C1 (relative stereo) [Example 45, cis-5-((5-(3-((2-(tert-butyl)pyridin-3-yl)oxy)cyclopentyl)-1H-pyrazol-3-yl)amino)-4-fluoro-2,3-dihydrobenzo[d]isothiazole 1,1-dioxide]
7450 nM	419 nM	O=S1(=O)NCc2c1ccc(Nc1cc([C@H]3CC[C@@H](Oc4ccccn4)C3)[nH]n1)c2F (relative stereo) [Example 46, cis-4-fluoro-5-((5-(3-(pyridin-2-yloxy)cyclopentyl)-1H-pyrazol-3-yl)amino)-2,3-dihydrobenzo[d]isothiazole 1,1-dioxide]
> 10000 nM	3440 nM	CC(C)(C)c1ccnc(O[C@@H]2CC[C@H](c3cc(Nc4ccc5c(c4F)CNS5(=O)=O)n[nH]3)C2)c1 (relative stereo) [Example 47, cis-5-((5-(3-((4-(tert-butyl)pyridin-2-yl)oxy)cyclopentyl)-1H-pyrazol-3-yl)amino)-4-fluoro-2,3-dihydrobenzo[d]isothiazole 1,1-dioxide]
425 nM	38 nM	O=S1(=O)NCc2c1ccc(Nc1cc([C@H]3CC[C@@H](Oc4ccon4)C3)[nH]n1)c2F (relative stereo) [Example 48, cis-4-fluoro-5-((5-(3-(isoxazol-3-yloxy)cyclopentyl)-1H-pyrazol-3-yl)amino)-2,3-dihydrobenzo[d]isothiazole 1,1-dioxide]
2560 nM	478 nM	O=c1ccon1[C@H]1CC[C@@H](c2cc(Nc3ccc4c(c3F)CNS4(=O)=O)n[nH]2)C1 (relative stereo) [Example 49, cis-2-(3-(3-((4-fluoro-1,1-dioxido-2,3-dihydrobenzo[d]isothiazol-5-yl)amino)-1H-pyrazol-5-yl)cyclopentyl)isoxazol-3 (2H)-one]
1320 nM	33 nM	O=S1(=O)NCc2c1ccc(Nc1cc([C@H]3CC[C@@H](Oc4ccsn4)C3)[nH]n1)c2F (relative stereo) [Example 50, cis-4-fluoro-5-((5-(3-(isothiazol-3-yloxy)cyclopentyl)-1H-pyrazol-3-yl)amino)-2,3-dihydrobenzo[d]isothiazole 1,1-dioxide]
1770 nM	214 nM	O=c1ccsn1[C@H]1CC[C@@H](c2cc(Nc3ccc4c(c3F)CNS4(=O)=O)n[nH]2)C1 (relative stereo) [Example 51, cis-2-(3-(3-((4-fluoro-1,1-dioxido-2,3-dihydrobenzo[d]isothiazol-5-yl)amino)-1H-pyrazol-5-yl)cyclopentyl)isothiazol-3 (2H)-one]
121 nM	7.1 nM	C=C(C)c1csnc1O[C@@H]1CC[C@H](c2cc(Nc3ccc4c(c3F)CNS4(=O)=O)n[nH]2)C1 (relative stereo) [Example 52, cis-4-fluoro-5-((5-(3-((4-(prop-1-en-2-yl)isothiazol-3-yl)oxy)cyclopentyl)-1H-pyrazol-3-yl)amino)-2,3-dihydrobenzo[d]isothiazole 1,1-dioxide]
118 nM	4.1 nM	O=S1(=O)NCc2c1ccc(Nc1cc([C@H]3CC[C@@H](Oc4nscc4C4CC4)C3)[nH]n1)c2F (relative stereo) [Example 53, cis-5-((5-(3-((4-cyclopropylisothiazol-3-yl)oxy)cyclopentyl)-1H-pyrazol-3-yl)amino)-4-fluoro-2,3-dihydrobenzo[d]isothiazole 1,1-dioxide]
418 nM	49 nM	O=c1c(C2CC2)csn1[C@H]1CC[C@@H](c2cc(Nc3ccc4c(c3F)CNS4(=O)=O)n[nH]2)C1 (relative stereo) [Example 54, cis-4-cyclopropyl-2-(3-(3-((4-fluoro-1,1-dioxido-2,3-dihydrobenzo[d]isothiazol-5-yl)amino)-1H-pyrazol-5-yl)cyclopentyl)isothiazol-3 (2H)-one]
486 nM	14 nM	CC(C)c1csnc1O[C@@H]1CC[C@H](c2cc(Nc3ccc4c(c3F)CNS4(=O)=O)n[nH]2)C1 (relative stereo) [Example 55, cis-4-fluoro-5-((5-(3-((4-isopropylisothiazol-3-yl)oxy)cyclopentyl)-1H-pyrazol-3-yl)amino)-2,3-dihydrobenzo[d]isothiazole 1,1-dioxide]
8300 nM	341 nM	CC(C)n1cnnc1O[C@@H]1CC[C@H](c2cc(Nc3ccc4c(c3F)CNS4(=O)=O)n[nH]2)C1 (relative stereo) [Example 57, cis-4-fluoro-5-((5-(3-((4-isopropyl-4H-1,2,4-triazol-3-yl)oxy)cyclopentyl)-1H-pyrazol-3-yl)amino)-2,3-dihydrobenzo[d]isothiazole 1,1-dioxide]
7200 nM	269 nM	CC1(n2cnnc2O[C@@H]2CC[C@H](c3cc(Nc4ccc5c(c4F)CNS5(=O)=O)n[nH]3)C2)CC1 (relative stereo) [Example 58, cis-4-fluoro-5-((5-(3-((4-(1-methylcyclopropyl)-4H-1,2,4-triazol-3-yl)oxy)cyclopentyl)-1H-pyrazol-3-yl)amino)-2,3-dihydrobenzo[d]isothiazole 1,1-dioxide]
556 nM	7.6 nM	CC(C)(C)n1cnnc1O[C@@H]1CC[C@H](c2cc(Nc3ccc4c(c3F)CNS4(=O)=O)n[nH]2)C1 (relative stereo) [Example 59, (cis)-5-((5-(3-((4-(tert-butyl)-4H-1,2,4-triazol-3-yl)oxy)cyclopentyl)-1H-pyrazol-3-yl)amino)-4-fluoro-2,3-dihydrobenzo[d]isothiazole 1,1-dioxide]
732 nM	12 nM	CC(C)c1cn[nH]c1O[C@@H]1CC[C@H](c2cc(Nc3ccc4c(c3F)CNS4(=O)=O)n[nH]2)C1 (relative stereo) [Example 60, cis-4-fluoro-5-((5-(3-((4-isopropyl-1H-pyrazol-5-yl)oxy)cyclopentyl)-1H-pyrazol-3-yl)amino)-2,3-dihydrobenzo[d]isothiazole 1,1-dioxide]
56 nM	1 nM	CC(C)(C)c1cn[nH]c1O[C@@H]1CC[C@H](c2cc(Nc3ccc4c(c3F)CNS4(=O)=O)n[nH]2)C1 (relative stereo) [Example 61, cis-5-((5-(3-((4-(tert-butyl)-1H-pyrazol-5-yl)oxy)cyclopentyl)-1H-pyrazol-3-yl)amino)-4-fluoro-2,3-dihydrobenzo[d]isothiazole 1,1-dioxide]
571 nM	24 nM	O=S1(=O)NCc2c1ccc(Nc1cc([C@H]3CC[C@@H](Oc4ccn[nH]4)C3)[nH]n1)c2F (relative stereo) [Example 62, cis-5-((5-(3-((1H-pyrazol-5-yl)oxy)cyclopentyl)-1H-pyrazol-3-yl)amino)-4-fluoro-2,3-dihydrobenzo[d]isothiazole 1,1-dioxide]
3120 nM	90 nM	Cn1nccc1O[C@@H]1CC[C@H](c2cc(Nc3ccc4c(c3F)CNS4(=O)=O)n[nH]2)C1 (relative stereo) [Example 63, cis-4-fluoro-5-((5-(3-((1-methyl-1H-pyrazol-5-yl)oxy)cyclopentyl)-1H-pyrazol-3-yl)amino)-2,3-dihydrobenzo[d]isothiazole 1,1-dioxide]
